From ChEMBL document CHEMBL3046014, “Quinolone derivatives as antitubercular drugs” (Med Chem Res, 2013)
Converted amounts (≈) assume the structure as drawn.

Experiments:
Mycobacterium avium = assay: Antitubercular activity against Mycobacterium avium by MAC assay; type: functional
[1] = tested on: Mycobacterium tuberculosis; assay: Antitubercular activity against Mycobacterium tuberculosis; type: functional, organism-based
[2] = tested on: Mycobacterium tuberculosis; assay: Antitubercular activity against Mycobacterium tuberculosis H37Rv; type: functional
[3] = Elimination half life in healthy Homo sapiens (human); type: ADME, organism-based; conditions: in vivo, read-out: beta t1/2 (converted)
Homo sapiens = species: Homo sapiens; assay: Toxicity in healthy Homo sapiens (human); type: organism-based; conditions: in vivo
[4] = Oral bioavailability in healthy Homo sapiens (human); type: ADME, organism-based; conditions: in vivo
[5] = Drug uptake in Mus musculus (mouse) serum at 100 mg/kg, po at 0.25 hr; type: ADME, organism-based; parameters: dose 100 mg/kg, route oral; conditions: read-out: Drug uptake
[6] = tested on: Mycobacterium tuberculosis; assay: Antitubercular activity against Mycobacterium tuberculosis CSU93

SMILES | IC50 [1] [µg/mL] | MIC90 [1] [µg/mL] | other results
OC(C1=CCC=CN1)c1cc(C2C3CC4CC(C3)CC2C4)nc2c1ccc1ccccc12 (stereo not drawn) |  |  | MIC50 (Mycobacterium avium): 2 µg/mL (≈ 4.73 µM)
C[C@H]1CN(c2c(F)cc3c(=O)c(C(=O)O)cn(C4CC4)c3c2OC(F)(F)F)CCN1.Cl | 0.25 |  | 
OC(C1=CCC=CN1)c1cc(-c2ccc(Cl)cc2)nc2c1ccc1ccccc12 (stereo not drawn) |  |  | MIC50 (Mycobacterium avium): 1 µg/mL (≈ 2.51 µM)
CC1COc2c(N3CCN(C)CC3)c(F)cc3c(=O)c(C(=O)O)cn1c23 (racemic) [OFLOXACIN] | 0.5 (≈ 1.38 µM) |  | 
CNC1CCCN(c2c(F)cc3c(=O)c(C(=O)O)cn(C4CC4)c3c2OC)C1 (stereo not drawn) [BALOFLOXACIN] | 0.5 (≈ 1.28 µM) |  | 
COc1nc2ccc(Br)cc2cc1[C@@H](c1ccccc1)[C@@](O)(CCN(C)C)c1cccc2ccccc12 [BEDAQUILINE] |  |  | MIC [2]: < 0.5 µg/mL
O=C(O)c1cn(C2CC2)c2cc(N3CCNCC3)c(F)cc2c1=O [CIPROFLOXACIN] | 0.5 (≈ 1.51 µM) |  | 
C[C@H]1NCc2cc(-c3ccc4c(=O)c(C(=O)O)cn(C5CC5)c4c3OC(F)F)ccc21 [GARENOXACIN] |  | 0.0625 (≈ 0.147 µM) | 
CO/N=C1\CN(c2nc3c(cc2F)c(=O)c(C(=O)O)cn3C2CC2)CC1CN (stereo not drawn) [GEMIFLOXACIN] |  | 8 (≈ 20.5 µM) | half-life [3]: 7.4 h; MNTD (Homo sapiens): 800 mg; bioavailability [4]: 70%
Cc1c(F)c(N2CCNC(C)C2)cc2c1c(=O)c(C(=O)O)cn2C1CC1 (stereo not drawn) [GREPAFLOXACIN] |  | 1 (≈ 2.78 µM) | 
C[C@H]1COc2c(N3CCN(C)CC3)c(F)cc3c(=O)c(C(=O)O)cn1c23.C[C@H]1COc2c(N3CCN(C)CC3)c(F)cc3c(=O)c(C(=O)O)cn1c23.O [LEVOFLOXACIN] |  | 1 | 
OC(c1cc(C(F)(F)F)nc2c(C(F)(F)F)cccc12)C1CCCCN1 (stereo not drawn) [MEFLOQUINE] |  |  | MIC50 (Mycobacterium avium): 16 µg/mL (≈ 42.3 µM)
COc1c(N2C[C@@H]3CCCN[C@@H]3C2)c(F)cc2c(=O)c(C(=O)O)cn(C3CC3)c12 [MOXIFLOXACIN] |  |  | concentration at 0.25 h [5]: 7800 ng/mL; MIC [6]: 0.25 µg/mL (≈ 0.623 µM)
CCn1cc(C(=O)O)c(=O)c2cc(F)c(N3CCNCC3)cc21 [NORFLOXACIN] | 8 (≈ 25.1 µM) |  | 
N[C@@H]1CN(c2c(F)cc3c(=O)c(C(=O)O)cn([C@@H]4C[C@@H]4F)c3c2Cl)CC12CC2 [SITAFLOXACIN ANHYDROUS] |  | 0.2 (≈ 0.488 µM) | half-life [3]: 4.4 h; bioavailability [4]: ≥ 70%
C[C@@H]1CN(c2c(F)c(N)c3c(=O)c(C(=O)O)cn(C4CC4)c3c2F)C[C@H](C)N1 [SPARFLOXACIN] | 0.25 (≈ 0.637 µM) |  | 
N[C@@H]1[C@H]2CN(c3nc4c(cc3F)c(=O)c(C(=O)O)cn4-c3ccc(F)cc3F)C[C@@H]12 [TROVAFLOXACIN] |  | 1 (≈ 2.4 µM) | 
